According to US20230416168A1 (EUROCHEM ANTWERPEN, priority 2020, published 2023):

System: Merelbeke soil
Experiment: In soil nitrification inhibition assay, Merelbeke soil
Conditions: for inhibition of ammonium consumption in soil, in words: 50 μM, one week of treatment; for inhibition at 50 µM: soil, 168 h, 7 days, read-out: % Nitrification inhibition in soil (7 days of incubation, Merelbeke soil)
Protocol: Top layer (0 to 10 cm) soil samples were collected from different fields in Belgium (Merelbeke and Moorslede). Vegetation on the field trial was removed and samples were taken from different plots. All soil samples were mixed and sieved (mesh size 2.8 mm) to filter large debris and homogenize soil. The soil was stored at 5° C. in plastic containers covered with Saran foil to prevent changes in microbial community composition and to maintain the original soil water content. Soil water content was determined by drying 20 g soil for 48 h in a 60° C. oven and measuring weight before and after drying. Based on the soil water content (±20%), compound solutions were prepared so that addition of 200 μl compound and 200 μl NH4Cl solution would result in a final compound concentration of 50 μM and a final NH4^+ concentration of 10 mM. Per treatment, 5 small pots were filled with 20 g soil. Next, the soil was treated first with the respective compound solution and then with the NH4Cl solution. Per tray, positive (50 μM DMP) and negative controls (DMSO) were included. Pots were incubated at 21° C. (6 a.m. to 10 p.m. light) for 7 days. Demineralized water was added to the soil every 2 to 3 days to a soil weight of 20 g. In the end, each sample of 20 g soil was dissolved in 100 ml 1M KCl and shaken for 1 hour, followed by filtration through Whatmann® paper. The filtrate was used to measure pH, NH4^+ and NO3− concentrations. The nitrification inhibitors were applied in a nitrification inhibition assay using agricultural soil. In practice, ammonium with or without the new nitrification inhibitors was added to soil from a field in Merelbeke (Belgium). The ammonium level was measured at the start of the experiment and at the end of the experiment, after one week of incubation. A nitrification inhibition percentage was calculated by comparing the reduction in ammonium level with the nitrification inhibitor to the reduction in ammonium without the nitrification inhibitor. Ammonium was added to soil with a high nitrification activity and treated with the nitrification inhibitors (final concentration of 50 μM). […] This validates that the new nitrification inhibitors are effectively inhibiting ammonia oxidation by soil communities.

**Q.** For CN(Cc1c(Cl)nc2sccn12)CN1CCSC1=S [Example 1, 3-[[(6-chloroimidazo[2,1-b][1,3]thiazol-5-yl)methyl-methylamino]methyl]-1,3-thiazolidine-2-thione], which “inhibition of ammonium consumption in soil, in words” value is on record?
**A.** strongly inhibited the ammonium consumption

**Q.** And the inhibition at 50 µM?
**A.** 60%

**Q.** Which “inhibition of ammonium consumption in soil, in words” value does the source give for CN(Cc1nc2ccccc2s1)CN1CCOC1=S [Example 5, 3-[[1,3-benzothiazol-2-ylmethyl(methyl)amino]methyl]-1,3-oxazolidine-2-thione] here?
**A.** significant inhibition

**Q.** What about the inhibition at 50 µM of the same compound?
**A.** 14%
